Experimental data published in patent US6440972B1, “Heterocyclic compounds useful as oxido-squalene cyclase inhibitors” (Zeneca Limited, priority 1997, dated 2002).

Legend:
[1] = target: T1, microsomal oxido-squalene cyclase (Rattus norvegicus, UniProt P48450); experiment: In vitro test to measure inhibition of oxido-squalene cyclase (rat liver microsomes); type: biochemical; conditions: concentration of 0.01 μM
T1 construct: Microsomes are prepared from rat liver according to methods known in the art; from tissue; host or cells: rat liver microsomes
T1 sequence (P48450 1-733): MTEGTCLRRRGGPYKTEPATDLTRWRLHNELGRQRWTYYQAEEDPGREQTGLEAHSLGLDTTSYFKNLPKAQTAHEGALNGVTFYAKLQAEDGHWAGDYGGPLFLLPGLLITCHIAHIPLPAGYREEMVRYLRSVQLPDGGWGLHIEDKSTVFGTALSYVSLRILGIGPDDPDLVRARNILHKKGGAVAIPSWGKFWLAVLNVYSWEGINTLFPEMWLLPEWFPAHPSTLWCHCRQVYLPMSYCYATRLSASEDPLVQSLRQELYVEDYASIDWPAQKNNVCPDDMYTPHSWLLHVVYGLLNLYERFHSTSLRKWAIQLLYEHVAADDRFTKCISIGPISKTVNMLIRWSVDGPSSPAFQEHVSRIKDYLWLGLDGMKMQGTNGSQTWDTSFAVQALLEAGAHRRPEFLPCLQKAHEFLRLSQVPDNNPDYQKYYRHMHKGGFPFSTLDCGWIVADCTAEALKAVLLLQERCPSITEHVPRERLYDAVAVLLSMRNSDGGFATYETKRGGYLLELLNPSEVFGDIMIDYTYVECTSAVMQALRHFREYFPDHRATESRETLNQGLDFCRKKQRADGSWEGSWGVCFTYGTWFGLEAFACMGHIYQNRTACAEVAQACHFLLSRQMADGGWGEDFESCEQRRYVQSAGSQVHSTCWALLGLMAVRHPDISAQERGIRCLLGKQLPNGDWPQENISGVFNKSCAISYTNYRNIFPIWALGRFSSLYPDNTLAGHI
Method: (a) In vitro Test to Measure Inhibition of Oxido-squalene Cyclase
This test measures the inhibition of microsomal oxido-squalene cyclase in vitro by compounds at set concentrations in the incubation medium.
Microsomes are prepared from rat liver according to methods known in the art, for example, the method described in published European Patent Application No 324,421 and stored in liquid nitrogen prior to assay. Assay vials are kept at 37° C. throughout the incubation. The microsomes typically contain 15-20 mg of protein per ml of microsomes. For the assay, 1 ml of microsomes are diluted by the addition of 722 μl of 50 mM phosphate buffer pH 7.4.
Phosphate buffered Tween® 80 (polyoxyethylene sorbitan […]) is prepared by adding 0.1 g Tween® 80 to 100 ml of 50 mM phosphate buffer.
A stock solution of oxido-squalene is made up as a solution in ethanol (0.65 mg.ml.^−1). 18 μl of radio-labelled oxido-squalene (1 μCi.ml^−1) is evaporated to dryness under a stream of nitrogen and redissolved in 1 ml of ethanol and 1 ml of the stock solution of oxido-squalene is added.
The test compound is dissolved in dimethyl sulphoxide to give a 10^−1M stock solution. […]
The samples are then placed in a water bath at 80° C. for 2 hours to saponify. […] Reaction rate is measured as the conversion of oxido-squalene to lanosterol, and the effects of test compounds are expressed as an inhibition of this process.

[2] = tested on: cholesterol biosynthesis; experiment: In vivo test to measure inhibition of oxido-squalene cyclase / cholesterol biosynthesis in the rat; conditions: dosed at 2 mg.kg^−1, oral, rat liver
Method: (b) In vivo Test to Measure Inhibition of Oxido-squalene Cyclase
The ability of a compound to inhibit oxido-squalene cyclase and/or inhibit cholesterol biosynthesis may be assessed by a routine laboratory procedure carried out in the rat. The test involves administration of the compound to rats on a reversed lighting regimen. Female rats (35-55 g) are housed in reverse lighting conditions (red light from 0200 h-[…]) for a period of about 2 weeks prior to test. Animals are allowed free access to chow and drinking water throughout this period. At test, animals should weigh 100-140 g. The rats are dosed orally with the compound (typically 10-50 mg/kg) formulated in a polyethylene glycol/hydroxypropylmethyl cellulose mix. After 1 hour the rats are given triturated sodium mevalonate (15 μCi.kg^−1) intraperitoneally. Two hours after administration of the compound the rats are terminated and a piece of liver removed and weighed. The tissue is saponified at 80° C. for 2 hours in an ethanolic/potassium hydroxide solution (80% w/v aqueous KOH diluted 1:10 with ethanol). Water (2 ml) is added and the mixture extracted with iso-hexane (2×5 ml). The organic extracts are combined, evaporated to dryness under a stream of nitrogen and the residue is dissolved in a mixture of acetonitrile/iso-propanol (300 μl). […] The radio-label content of each fraction is assessed using a radio chemical flow detector. […]

Row | melting point [°C] | SMILES | inhibition of rat microsomal oxido-squalene cyclase [1] | inhibition of rat cholesterol biosynthesis [2]
1 |  | O=C(C1CCN(c2ccncc2Cl)CC1)N1CCN(S(=O)(=O)c2ccc(Br)cc2)CC1 [Example 1] | about 79% | about 79%
2 | 192 | O=C(C1CCN(c2ccncc2F)CC1)N1CCN(S(=O)(=O)c2ccc(Br)cc2)CC1 |  | 
